Reference: patent US20060040931A1, “Benzomorpholine derivatives” (Toray Industries, Inc., priority 2002, published 2006)

system: human platelet aggregation; assay: Human platelet aggregation inhibitory test (ADP-induced, platelet rich plasma); type: cell-based; conditions: human PRP, 5 μM ADP, compound added 1 minute before ADP, turbidity (aggregometer), read-out: Platelet Aggregation Inhibitory Effect IC50
Procedure: Blood collected from human median cubital vein was centrifuged at 800 rpm for 10 minutes. Upper portion of the resultant was collected as platelet rich plasma (PRP). PRP was dispensed to small test tubes, and 5 μM of ADP was added thereto to induce platelet aggregation. The degree of platelet aggregation was measured as a change in turbidity using an aggregometer (Hematracer 1, Nikobioscience). Each compound was added 1 minute before ADP addition, and calculation was carried out using as an IC50 value a concentration that inhibits aggregation by 50%.

| IC50 | SMILES |
| --- | --- |
| 13 nM | O=C(O)COc1cccc2c1OCCN2CCN(C(=O)c1ccccc1)c1ccc(Cl)cc1 [Example 1-14] |
| 5.3 nM | Cc1ccc(N(CCN2CCOc3c(OCC(=O)O)cccc32)C(=O)c2ccccc2)cc1 [Example 1-16] |
| 5.9 nM | Cc1ccc(C(=O)N(CCN2CCOc3c(OCC(=O)O)cccc32)c2ccc(C)cc2)cc1 [Example 1-28] |
| 14 nM | CSc1ccc(N(CCN2CCOc3c(OCC(=O)O)cccc32)C(=O)c2ccccc2)cc1 [Example 1-40] |
| 18 nM | O=C(O)COc1cccc2c1OCCN2CCN(C(=O)c1ccccc1)c1ccc(Cl)cc1Cl [Example 1-49] |
| 8.8 nM | O=C(O)COc1cccc2c1OCCN2CCN(C(=O)c1ccccc1)c1ccc(Cl)cc1F [Example 1-63] |
| 27 nM | Cc1ccc(C(=O)N(CCN2CCOc3c(OCC(=O)O)cccc32)c2ccc(Br)cc2)cc1 [Example 2-4] |
| 55 nM | O=C(O)COc1cccc2c1OCCN2CCN(C(=O)C1=CCCCC1)c1ccc(Br)cc1 [Example 2-27] |

system: platelet aggregation; assay: Monkey platelet aggregation inhibitory test after oral administration (ex vivo, ADP-induced, PRP); type: in vivo; conditions: male crab-eating monkeys, blood before and 30, 60, 120, 180 min after administration, 10 μM ADP, FIG. 1
Procedure: Male crab-eating monkeys (4 to 6 kg) were retained in monkey chairs. After 30 minutes of acclimatization, the compound of Example 1-13 was orally administered to the monkeys using catheters (16 Fr).
Blood was collected via saphenous veins before, and 30, 60, 120 and 180 minutes after administration of drug solutions using a syringe that had previously contained a 3.8% sodium citrate solution in a volume that was one-tenth of that of collected blood.
The collected blood was centrifuged at 1000 rpm for 10 minutes. Upper portions of the resultants were collected as platelet rich plasma (PRP). PRP was apportioned into small test tubes, and 10 μM of ADP was added thereto to induce platelet aggregation. The degree of platelet aggregation was measured as a change in turbidity using an aggregometer (Hematracer 1, Nikobioscience).

| SMILES | inhibitory effect of platelet aggregation after oral administration |
| --- | --- |
| O=C(O)COc1cccc2c1OCCN2CCN(C(=O)c1ccccc1)c1ccc(Br)cc1 [Example 1-13] | strong inhibitory effect of platelet aggregation |
